Assay results taken from the NIST ThermoML archive (doi:10.1016/j.jct.2006.07.022).

Assay: xn = mol fraction of the nth substance listed
Conditions: 101 kPa, Liquid

CN(C)C=O [dimethylformamide] + c1ccccc1
Conditions | mass density [kg/m3]
293.15 K, x2 = 0 | 948.58
293.15 K, x2 = 0.0785 | 943.13
293.15 K, x2 = 0.1347 | 939.28
293.15 K, x2 = 0.2036 | 934.59
293.15 K, x2 = 0.2699 | 930.11
293.15 K, x2 = 0.3352 | 925.71
293.15 K, x2 = 0.4034 | 921.13
293.15 K, x2 = 0.4874 | 915.49
293.15 K, x2 = 0.5432 | 911.72
293.15 K, x2 = 0.6044 | 907.55
293.15 K, x2 = 0.6705 | 903
293.15 K, x2 = 0.7413 | 898.06
293.15 K, x2 = 0.8056 | 893.49
293.15 K, x2 = 0.871 | 888.73
293.15 K, x2 = 0.9214 | 884.99
293.15 K, x2 = 0.9785 | 880.66
303.15 K, x2 = 0 | 939.46
303.15 K, x2 = 0.0689 | 934.59
303.15 K, x2 = 0.1354 | 929.93
303.15 K, x2 = 0.2037 | 925.19
303.15 K, x2 = 0.2701 | 920.6
303.15 K, x2 = 0.3387 | 915.87
303.15 K, x2 = 0.407 | 911.17
303.15 K, x2 = 0.4735 | 906.6
303.15 K, x2 = 0.5403 | 901.98
303.15 K, x2 = 0.6054 | 897.43
303.15 K, x2 = 0.6791 | 892.23
303.15 K, x2 = 0.7441 | 887.56
303.15 K, x2 = 0.81 | 882.75
303.15 K, x2 = 0.8741 | 877.97
303.15 K, x2 = 0.9245 | 874.12
303.15 K, x2 = 0.9784 | 869.92
313.15 K, x2 = 0 | 930.12
313.15 K, x2 = 0.0655 | 925.37
313.15 K, x2 = 0.1357 | 920.35
313.15 K, x2 = 0.2019 | 915.66
313.15 K, x2 = 0.2684 | 910.98
313.15 K, x2 = 0.336 | 906.21
313.15 K, x2 = 0.4063 | 901.26
313.15 K, x2 = 0.4726 | 896.57
313.15 K, x2 = 0.5367 | 892.03
313.15 K, x2 = 0.6038 | 887.24
313.15 K, x2 = 0.6792 | 881.8
313.15 K, x2 = 0.738 | 877.51
313.15 K, x2 = 0.8119 | 872.03
313.15 K, x2 = 0.873 | 867.4
313.15 K, x2 = 0.9314 | 862.88
313.15 K, x2 = 0.98 | 859.02
323.15 K, x2 = 0 | 920.55
323.15 K, x2 = 0.0785 | 914.76
323.15 K, x2 = 0.1359 | 910.58
323.15 K, x2 = 0.2021 | 905.79
323.15 K, x2 = 0.2687 | 901.01
323.15 K, x2 = 0.3364 | 896.14
323.15 K, x2 = 0.4066 | 891.09
323.15 K, x2 = 0.4735 | 886.28
323.15 K, x2 = 0.5415 | 881.37
323.15 K, x2 = 0.6092 | 876.44
323.15 K, x2 = 0.6736 | 871.72
323.15 K, x2 = 0.7453 | 866.4
323.15 K, x2 = 0.8089 | 861.6
323.15 K, x2 = 0.8797 | 856.16
323.15 K, x2 = 0.9374 | 851.62
323.15 K, x2 = 0.9777 | 848.38
333.15 K, x2 = 0 | 910.75
333.15 K, x2 = 0.0695 | 905.54
333.15 K, x2 = 0.1354 | 900.67
333.15 K, x2 = 0.2026 | 895.73
333.15 K, x2 = 0.2701 | 890.79
333.15 K, x2 = 0.3321 | 886.27
333.15 K, x2 = 0.4042 | 881.01
333.15 K, x2 = 0.475 | 875.82
333.15 K, x2 = 0.5487 | 870.41
333.15 K, x2 = 0.6014 | 866.51
333.15 K, x2 = 0.6758 | 860.97
333.15 K, x2 = 0.7371 | 856.36
333.15 K, x2 = 0.8142 | 850.48
333.15 K, x2 = 0.8809 | 845.28
333.15 K, x2 = 0.9398 | 840.58
333.15 K, x2 = 0.9785 | 837.43
343.15 K, x2 = 0 | 900.73
343.15 K, x2 = 0.0577 | 896.35
343.15 K, x2 = 0.1155 | 892
343.15 K, x2 = 0.1728 | 887.74
343.15 K, x2 = 0.2388 | 882.84
343.15 K, x2 = 0.299 | 878.39
343.15 K, x2 = 0.3652 | 873.49
343.15 K, x2 = 0.4202 | 869.41
343.15 K, x2 = 0.504 | 863.2
343.15 K, x2 = 0.5606 | 858.98
343.15 K, x2 = 0.6275 | 853.95
343.15 K, x2 = 0.6963 | 848.75
343.15 K, x2 = 0.7585 | 844
343.15 K, x2 = 0.8187 | 839.33
343.15 K, x2 = 0.8814 | 834.39
343.15 K, x2 = 0.9584 | 828.16
